Series [1] has as its system renal glucose reabsorption. Particulars: cited from earlier work.
Series [2] concerns the target T1, hSGLT2 (Homo sapiens, UniProt P31639).
T1 sequence (P31639 1-672): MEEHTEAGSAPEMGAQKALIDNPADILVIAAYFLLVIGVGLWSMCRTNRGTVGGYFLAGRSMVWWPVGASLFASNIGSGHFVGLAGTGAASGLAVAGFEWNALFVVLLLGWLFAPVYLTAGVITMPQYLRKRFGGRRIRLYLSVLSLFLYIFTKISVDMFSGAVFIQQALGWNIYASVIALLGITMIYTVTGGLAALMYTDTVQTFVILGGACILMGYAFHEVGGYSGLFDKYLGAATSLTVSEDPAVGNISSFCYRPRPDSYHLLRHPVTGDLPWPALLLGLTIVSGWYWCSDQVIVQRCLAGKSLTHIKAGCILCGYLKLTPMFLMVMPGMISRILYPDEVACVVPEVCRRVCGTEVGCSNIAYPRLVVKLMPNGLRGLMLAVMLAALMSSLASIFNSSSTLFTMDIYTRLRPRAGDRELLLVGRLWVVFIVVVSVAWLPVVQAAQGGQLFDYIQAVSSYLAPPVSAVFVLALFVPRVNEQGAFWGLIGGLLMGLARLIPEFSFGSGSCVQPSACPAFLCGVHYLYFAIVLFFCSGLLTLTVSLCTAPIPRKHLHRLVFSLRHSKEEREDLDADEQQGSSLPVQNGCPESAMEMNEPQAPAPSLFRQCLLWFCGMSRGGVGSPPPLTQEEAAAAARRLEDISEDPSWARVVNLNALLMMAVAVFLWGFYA
As to the kind of experiment: [14C]-αMDG uptake in HEK-293T cells expressing hSGLT2. Also noted: transfected with 1 μg of the vector containing the hSGLT2 or hSGLT1 coding region; expressed in transfected cells; host or cells: HEK-293T. The class given is cell-based. On the procedure:
Uptake was normalized to total cellular protein.
We decided to use two different approaches due to the fact that hSGLT2 has low expression, yielding small glucose‐induced currents. For radiotracer uptake experiments, tracer entry in the cell is measured over the period of 30 min leading to a higher sensitivity of the method.

Series [3] concerns the target T1, hSGLT2. The arrangement: transfected with 1 μg of the vector containing the hSGLT2 or hSGLT1 coding region; expressed in transfected cells; host or cells: HEK-293T. Particulars: ref Hummel et al. [2011], cited from earlier work.
The test system of another series is hSGLT2 over hSGLT1. Also noted: method as in Nomura et al. [2010]. Conditions: from IC50; ref Nomura et al. [2010]; cited from earlier work.
Series [4] deals with T1, hSGLT2. The arrangement: method as in Koga et al. [2013]. Particulars: ref Koga et al. [2013], cited from earlier work.
On the set-up of series [5]: method as in Koga et al. [2013]. Conditions: ref Koga et al. [2013]; cited from earlier work.
Series [6] deals with T2, hSGLT1 (Homo sapiens, UniProt P13866).
T2 sequence (P13866 1-664): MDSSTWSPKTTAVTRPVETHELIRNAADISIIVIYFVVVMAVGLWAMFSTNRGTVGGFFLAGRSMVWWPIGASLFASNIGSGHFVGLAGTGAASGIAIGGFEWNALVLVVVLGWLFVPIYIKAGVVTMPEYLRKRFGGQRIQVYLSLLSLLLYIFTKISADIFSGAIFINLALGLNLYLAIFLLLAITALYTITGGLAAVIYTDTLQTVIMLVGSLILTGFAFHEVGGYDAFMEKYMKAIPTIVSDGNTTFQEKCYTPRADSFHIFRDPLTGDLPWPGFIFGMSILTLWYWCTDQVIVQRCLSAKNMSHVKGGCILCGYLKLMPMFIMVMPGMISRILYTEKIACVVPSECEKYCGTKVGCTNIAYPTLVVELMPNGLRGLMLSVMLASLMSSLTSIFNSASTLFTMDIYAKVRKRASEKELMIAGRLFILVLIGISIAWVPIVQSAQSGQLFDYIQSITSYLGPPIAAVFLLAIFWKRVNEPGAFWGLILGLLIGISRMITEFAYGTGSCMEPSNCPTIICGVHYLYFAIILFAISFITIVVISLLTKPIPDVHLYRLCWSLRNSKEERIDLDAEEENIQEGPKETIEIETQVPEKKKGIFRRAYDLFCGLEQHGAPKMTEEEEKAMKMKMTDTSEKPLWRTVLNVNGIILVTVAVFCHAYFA
Particulars: 300 nmol/L TA-3404, 50 μmol/L α-MDG, HEK-293T, 37°C.
Procedure: In brief, cells were incubated for 30 min in 50 μmol/L [^14C]‐α‐Methyl‐D‐glucopyranoside (GE HealthCare Life Sciences, Piscataway, NJ), a specific substrate for SGLTs, and washed in cold Choline buffer three times. The cells were solubilized and a sample was assayed using scintillation counting. Uptake was normalized to total cellular protein. For each tested condition, the sample size was n = 3–4 wells and each experiment was repeated at least twice.

The target of series [7] is T2, hSGLT1. Kind of series: Whole-cell patch clamp, glucose-induced current, extracellular inhibitor, HEK-293T cells expressing hSGLT1. Background: Patch clamp records ionic current or voltage across a cell membrane.
Procedure: In brief, 2 days after transfection cells were plated on 12‐mm poly‐L‐lysine‐coated glass coverslips and selected on the basis of fluorescence intensity using a Nikon diaphot epifluorescence microscope (Nikon, Tokyo, Japan). During the experiment cells were kept at the holding potential Vh = −60 mV. […] Currents were filtered at 2 kHz and digitized at 1 kHz.
Glucose currents (IGlu) were obtained by subtracting the baseline current recorded in Na^+ buffer to the total current measured in Na^+ buffer + glucose: [drawing 1]
The inhibition constant (IC50) was determined by measuring the sugar‐dependent steady‐state current or radiotracer uptake as a function of external inhibitor concentration.
The D‐glucose‐coupled current recovery follows an exponential time course with time constant 1/koff and half‐time for recovery (t1/2,off) related to the off rate: [drawing 3]
The ON rate (kon) is calculated from the empirically measured Ki values and koff values: [drawing 4]
To calculate the dissociation constant (koff) we measured the recovery time of SGLT glucose‐induced current when the inhibitor is rapidly removed from the extracellular solution.
For series [8], the target named is T1, hSGLT2. As to the kind of experiment: Whole-cell patch clamp, glucose-induced current, extracellular inhibitor, HEK-293T cells expressing hSGLT2. The arrangement: transfected with 1 μg of the vector containing the hSGLT2 or hSGLT1 coding region; expressed in transfected cells; host or cells: HEK-293T. The class given is cell-based.
Series [9] has as its target T1, hSGLT2. As to the kind of experiment: Whole-cell patch clamp, inward glucose current with inhibitor in the intracellular (pipette) solution, hSGLT2. The format is cell-based. Also noted: transfected with 1 μg of the vector containing the hSGLT2 or hSGLT1 coding region; expressed in transfected cells; host or cells: HEK-293T. The text has this: (§1) The intracellular NaCl concentration was maintained at either 5 or 150 mmol/L using CsCl to replace NaCl (Fig. 5A and B).

For series [10], the target named is T2, hSGLT1. As to the kind of experiment: Whole-cell patch clamp, inward glucose current with inhibitor in the intracellular (pipette) solution, hSGLT1. Also noted: transfected with 1 μg of the vector containing the hSGLT2 or hSGLT1 coding region; expressed in transfected cells; host or cells: HEK-293T. The class given is cell-based.
Source text: as §1

For series [11] the following is noted: after 24 h, single clinical oral dose; ref Hummel et al. [2012]; cited from earlier work.
The mark [12] stands for this setting: ref Chasis et al. [1933], Silverman [1974].
[13] abbreviates: physiological conditions, HEK293T cells.

Read-outs that look alike come from different tables or passages of the source.

Here are results for four compounds from article PMC4208661, “SGLT2 inhibitors act from the extracellular surface of the cell membrane” (Physiological Reports, 2014).

`O=C(CCc1ccc(O)cc1)c1c(O)cc(O)cc1O[C@@H]1O[C@H](CO)[C@@H](O)[C@H](O)[C@H]1O` [phlorizin]: in series [1] (setting [12]), the glomerular filtration entry was “freely filtered” and the glucose reabsorption entry is on record as “completely blocks glucose reabsorption”. In series [1] (ref Silverman [1974]), the route of excretion result is recorded as “mainly excreted into the urine”. Besides, the “effect on sugar uptake by hSGLT2” value on hSGLT2 [2] (100 μmol/L phlorizin, 50 μmol/L α-MDG, HEK-293T) is recorded as “to the level observed in untransfected cells”. Also, the “Off rate, hSGLT2” value at hSGLT2 [3] (phlorizin) is 0.3 per sec. The “half-time of recovery of hSGLT2 current (t1/2,off)” value on hSGLT2 [3] was 24 s.
In the case of `Cc1ccc([C@@H]2O[C@H](CO)[C@@H](O)[C@H](O)[C@H]2O)cc1Cc1ccc(-c2ccc(F)cc2)s1` [Canagliflozin, canagliflozin], the “selectivity for hSGLT2 over hSGLT1” value in the series with hSGLT2 over hSGLT1 is recorded as 414 fold.
For the compound `OC[C@H]1O[C@@H](c2ccc(Cl)c(Cc3ccc(-c4ccc(F)nc4)s3)c2)[C@H](O)[C@@H](O)[C@@H]1O` [TA‐3404], the IC50 (in general, the concentration at which inhibition is half-maximal) was 2 nM at hSGLT2 [4] (CHOK1 cells overexpressing hSGLT2, read-out: IC50, Na+-dependent 14C-α-MDG uptake, SGLT2); 300 ± 61 nM against hSGLT1 [7]; 3.9 ± 2.2 nM on hSGLT2 [2] (50 μmol/L [14C]-αMDG, 1-500 nmol/L extracellular TA-3404, HEK-293T, read-out: IC50, [14C]-αMDG uptake, hSGLT2); 2 nM at hSGLT2 [2] (as stated in the abstract, read-out: IC50, extracellular inhibition of glucose inward SGLT2 transport). The “selectivity for SGLT2 vs. SGLT1” value at hSGLT2 [4] (CHOK1 cells, ratio of IC50) is ~ 350 fold. Also, in series [5], the pharmacokinetic profiles entry is “favorable pharmacokinetic profiles”. For the same compound, the urine glucose excretion result in series [5] is listed as “increased urine glucose excretion”. The “inhibition of hSGLT1 uptake” value against hSGLT1 [6] worked out at 10%. The inhibition constant Ki – broadly, the equilibrium dissociation constant of an inhibitor or competing ligand from its target – at hSGLT1 [7] is 150 nM; on hSGLT2 [2] (from IC50 (IC50 is twice the Ki), extracellular), approximately 2 nM. The “half-time of recovery of hSGLT1 current (t1/2,off)” value at hSGLT1 [7] (after removal of inhibitor, n = 5) was 5.4 ± 0.4 s. For the same compound, the “koff, hSGLT1” value on hSGLT1 [7] (from half-time of current recovery) is reported as 0.2 per sec. The “inhibition of hSGLT2 sugar uptake” value on hSGLT2 [2] (2 nmol/L TA-3404, 50 μmol/L α-MDG, HEK-293T, 37°C) is 50%. The “affinity of hSGLT2 higher than for hSGLT1” value on hSGLT2 [2] (HEK-293T) was “about 75 fold”. For the same compound, the “inhibition of glucose-induced inward current, hSGLT2” value against hSGLT2 [8] (300 nmol/L extracellular TA-3404, 100 mmol/L glucose, -60 mV, 37°C) is “completely inhibited”. Moreover, the “half-time of recovery of hSGLT2 current (t1/2,off)” value at hSGLT2 [8] (after removal of inhibitor, reversible ~50% component, n = 3) was found to be 17 ± 0.5 s. For the same compound, the “kon, hSGLT2” value at hSGLT2 [8] (calculated from Ki and koff) is recorded as 1.4 × 10^6 mol/L per sec. Moreover, the “recovery of hSGLT2 current after removing the inhibitor” value at hSGLT2 [8] (washout, no further recovery over 5 min) was ~ 50%. Also, the “inhibition of inward hSGLT2 Na+/glucose current” value on hSGLT2 [9] (200 nmol/L TA-3404 intracellular, 5 mmol/L intracellular Na+, 100 mmol/L glucose, -60 mV) was “did not inhibit”. The “inhibition of inward hSGLT2 glucose current” value against hSGLT2 [9] (200 nmol/L TA-3404 intracellular, 150 mmol/L intracellular Na+) is reported as “no significant inhibition”. Also, on hSGLT2 [9] (intracellular versus extracellular), the “intracellular affinity of hSGLT2 lower than the extracellular affinity” value is recorded as “at least 100”. The “inhibition of SGLT2 from the intracellular compartment” value on hSGLT2 [9] (low (5 mmol/L) and high (150 mmol/L) intracellular NaCl) was “ineffective”. Besides, the “inhibition of Na+/glucose currents generated by hSGLT2, inhibitor in the cytoplasm” value at hSGLT2 [9] (setting [13]) is on record as “does not inhibit”. Moreover, the “effect on inward hSGLT1 Na+/glucose current” value at hSGLT1 [10] (200 nmol/L TA-3404 intracellular, 5 mmol/L NaCl in the pipette, 10 mmol/L glucose) was “no effect”. Besides, the “effect on hSGLT1 glucose-induced current” value at hSGLT1 [10] (200 nmol/L TA-3404 intracellular, 150 mmol/L Na+ in the pipette) was “did not detect any significant effect”. Also, the “inhibition of Na+/glucose currents generated by hSGLT1, inhibitor in the cytoplasm” value against hSGLT1 [10] (setting [13]) was “does not inhibit”.
With `CCOc1ccc(Cc2cc([C@@H]3O[C@H](CO)[C@@H](O)[C@H](O)[C@H]3O)ccc2Cl)cc1` [dapagliflozin], the free plasma concentration in series [11] was 25 nM. Moreover, the “Off rate of binding to hSGLT2” value on hSGLT2 [3] is “very slow Off rate”.
